In test [1] the test system is guinea pig tracheal spiral preparations. The test can be described thus: Bronchodilation in vitro; guinea pig tracheal spiral preparations. It is filed as cell-based. Conditions: relaxation relative to total relaxation evoked by 10⁻³M isoprenaline. As to the method: (a) Bronchodilation in vitro; guinea pig tracheal spiral preparations.
Male guinea pigs (300-600g) were stunned by a blow to the head and bled from the carotid artery. The trachea was exposed, dissected free of connective tissue, and transferred to oxygenated krebs solution at 37°C. Next, spirals (2 per trachea) were prepared by cutting the whole trachea spirally along its longitudinal axis and then dividing this spiral lengthwise. Each preparation was mounted, using silk thread, in a 10ml organ bath filled with krebs solution at 37°C and bubbled with 5% CO₂ with O₂. The resting tension of the preparations was set at 2g and changes in muscle tension were monitored isometrically by means of a UFI (2oz) force and displacement transducer (Ormed Ltd) connected to a Linseis pen recorder. […] During this equilibration period the preparations were washed by upward displacement at 15 minute intervals and, if necessary, the resting tension was readjusted to 2g using a mechanical micromanipulator system.
Once a steady resting tension had been obtained, the preparations were dosed cumulatively with the test compound (10⁻⁸-2x10⁻⁵M), and finally a maximum relaxation achieved by addition of 10⁻³M isoprenaline. The fall in tension evoked by the test compound was expressed as a percentage of the total relaxation evoked in the presence of 10⁻³M isoprenaline. […]

The test system of test [2] is Spontaneously hypertensive rats. Put plainly: Blood pressure lowering activity, tail cuff method. The class given is in vivo. Particulars: dose 1 mg/kg, initial blood pressure 265 ± 8 mmHg, 6 rats. On the procedure:
Blood Pressure Lowering Activity
Systolic blood pressures were recorded by a modification of the tail cuff method described by I.M. Claxton, M.G. Palfreyman, R.H. Poyser, R.L. Whiting, European Journal of Pharmacology, 37, 179 (1976). A W+W BP recorder, model 8005 was used to display pulses.Prior to all measurements rats were placed in a heated environment (33.5 ± 0.5°C) before transfer to a restraining cage. Each determination of blood pressure was the mean of at least 6 readings. Spontaneously hypertensive rats (ages 12-18 weeks) with systolic blood pressures >180 mmHg were considered hypertensive.

Structures are written as SMILES.

In the case of `CC1(C)Oc2ccc(C#N)cc2C(N2CCCC2=O)C1=O` (centres unmarked) [Example 1, 6-Cyano-3,4-dihydro-2,2 dimethyl-4-(2-oxopyrrolidin-1-yl)-2H-1-benzopyran-3-one], in test [1], the “Intrinsic Activity” value is 0.89. The “% Change in Systolic Blood Pressure” value in test [2] (1 h post dose) is given as -27 ± 5 (6 rats) %; in test [2] (2 h post dose) it was -24 ± 1 (6 rats) %; in test [2] (4 h post dose), -19 ± 6 (6 rats) %; in test [2] (6 h post dose) it was -25 ± 5 (6 rats) %.

The values above are taken from patent EP0366273A1, “Benzopyran derivatives with smooth muscle relaxant activity” (BEECHAM GROUP PLC, priority 1988, dated 1990).
